We go through 1 compound from patent publication US8647651B2, “Synergistic mixtures of C6- to C12-alkanediols and tropolone (derivatives)” (priority 2005, dated 2014).

For this test, the system named is Aspergillus niger ATCC 16404. Kind of test: Testing for adequate preservation (European Pharmacopoeia) of O/W emulsion, Example 1. In kind it is cell-based. The conditions noted are these: for Aspergillus niger germ count: O/W emulsion pH 5.5, 0.5% product A, 0.01% product B, 0.31% product C. The protocol:
Testing for adequate preservation was carried out in accordance with the European Pharmacopoeia. Testing thus comprises contamination of the formulation, if possible in its final condition, with a prescribed inoculum of suitable microorganisms, storage of the inoculated formulation at a certain temperature, removal of samples from the container at certain intervals of time and determination of the number of microorganisms in the samples removed in this way. The preserving properties are adequate if, under the conditions of the test, a clear reduction or, where appropriate, no increase in the germ count results in the inoculated formulations after the prescribed times at the prescribed temperatures. Experimental details of the test procedure are described in the European Pharmacopoeia (ISBN 3-7692-2768-9; Supplement 2001 to the 3rd Edition, page 421-422, chapter 5.1.3). The following microorganism strains were used for the tests for adequate preservation: • A: Escherichia coli ATCC 8739 • B: Pseudomonas aeruginosa ATCC 9027 • C: Staphylococcus aureus ATCC 6538 • D: Candida albicans ATCC 10231 • E: Aspergillus niger ATCC 16404 The initial germ count (CFU/g; “0 value”) was in the range of from 250,000 to 320,000 in the various test series. Formulation: For the tests for adequate preservation, a defined amount of the active compound combination according to the invention (product C) was incorporated into an O/W emulsion. For comparison purposes, the comparison products (product A and B) were incorporated into separate O/W emulsions. [table] The results of the preservative stress tests for Aspergillus niger for the active compound combinations investigated, comprising the mixture according to the invention (product C) or the comparison systems (products A and B) are compared in Table 2. The synergistic effect of the mixture according to the invention (product C) manifests itself here above all in the residual germ counts for Aspergillus niger which remain after 28 days.

For `O=c1cccccc1O` [product B, 2,4,6-cycloheptatrien-1-one, 2-hydroxy], the “reduction in the number of colony-forming units (CFU) of Aspergillus niger” value (28 days, product A 0.5 wt. %) was “no such significant reduction”. Moreover, the “Aspergillus niger germ count” value is on record as 280,000 CFU/ml (day 0 (initial germ count)); 72,000 CFU/ml (day 2); 2,000 CFU/ml (day 7); 4,800 CFU/ml (day 14); 100 CFU/ml (day 28).
